Key:
[1] = tested on: AtT-20 cells; experiment: Dose response of spontaneous calcium oscillations by confocal Calcium Green imaging of single cells; assay type: cell-based, mouse
Description: Sigmoidal dose response curves were fit to each individual cell and the average response over the total population was calculated.
The treated cell samples were imaged using asymmetric imaging methods and a temporal resolution of 3 fps for up to 45 minutes total recording time. In particular, illumination (excitation) was diffraction limited while the detection (emission) was almost wide-field by opening the confocal detection pinhole but leaving the excitation pinhole closed. This allowed for increased detection efficiency, while still suppressing background fluorescence. […]
The Attofluor cell culture chamber was placed inside a PenCon temperature controlled incubator at 37° C. mounted on a DMIRB/E inverted microscope (obtained from Leica Microsystems; Wetzlar, Germany). […] The digital temperature readout of the incubator was checked with a calibrated mercury thermometer to confirm the values within 0.2° C. […]

[2] = tested on: AtT-20 cells; experiment: Cell viability control after 45 minutes of imaging and nimodipine: calcium response to high K+ depolarization; assay type: cell-based, mouse; conditions: 45 minutes of imaging and nimodipine treatment up to maximum dose, FIG. 4B
Description: Cells were stained with Calcium Green, imaged and exposed to increasing drug doses for 45 minutes. […] First, untreated AtT-20 cells were imaged over a forty-five (45) minute time span with continuous recording at 3 fps. The amplitude of calcium oscillations was measured and plotted over time. […] The averaged oscillation amplitudes of an untreated cell sample over a fifty (50) minute interval for all cells is shown in FIG. 3B. […] As such, experiments were not recorded longer than 45 minutes.

Structure (SMILES): COCCOC(=O)C1=C(C)NC(C)=C(C(=O)OC(C)C)C1c1cccc([N+](=O)[O-])c1 (stereo not drawn) [nimodipine, 1,4-Dihydro-2,6-dimethyl-4-(3-nitrophenyl)-3,5-pyridinedicarboxylic acid 2-methyloxyethyl 1-methylethyl ester]
- IC50 ([1]; Mus musculus, AtT20, 5 min, average over all individual cells, FIG. 5B, 5 minute interval per dose, read-out: IC50 of the averaged dose response of calcium oscillation amplitude): 23 nM
- Concentration giving complete inhibition of baseline spontaneous calcium oscillations (BSCOs) ([1]; representative cell, FIG. 4C, concentration increased in 10-fold increments): 100 nM
- Toxicity of prolonged exposure to cells [2]: non-toxic

Source: patent US8709804B2, “Method for drug screening and characterization by calcium flux” (Cedars-Sinai Medical Center, priority 2004, dated 2014)
